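96-well plates; 48 h exposure; 5 concentrations. Endpoints by linear interpolation between flanking doses. Not reached: highest tested concentration assigned. TGI marks complete inhibition of growth.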
How the values were obtained:
Assay in all cases: NCI tumour cell line growth inhibition, 48 h
[1] = system: 786-0 renal
[2] = system: A498 renal
[3] = system: ACHN renal
[4] = system: DU-145 prostate
[5] = system: HS 578T breast
[6] = system: K-562 leukemia
[7] = system: M14 melanoma
[8] = system: NCI-H460 lung
[9] = system: OVCAR-8 ovarian
[10] = system: PC-3 prostate
[11] = system: SF-268 CNS
[12] = system: SF-295 CNS
[13] = system: SNB-19 CNS
[14] = system: SW-620 colon
[15] = system: T-47D breast
[16] = system: TK-10 renal
[17] = system: U251 CNS
[18] = system: OVCAR-4 ovarian
[19] = system: RPMI-8226 leukemia

| Structure (SMILES) | TGI [1] | TGI [2] | TGI [3] | TGI [4] | TGI [5] | TGI [6] | TGI [7] | TGI [8] | TGI [9] | TGI [10] | TGI [11] | TGI [12] | TGI [13] | TGI [14] | TGI [15] | TGI [16] | TGI [17] | TGI [18] | TGI [19] |
| --- | --- | --- | --- | --- | --- | --- | --- | --- | --- | --- | --- | --- | --- | --- | --- | --- | --- | --- | --- |
| N#Cc1c2c([nH]c(=O)c1C#N)CCCC2 | > 100 µM | > 100 µM | > 100 µM | > 100 µM | > 100 µM | > 100 µM | > 100 µM | > 100 µM | > 100 µM | > 100 µM | > 100 µM | > 100 µM | > 100 µM | > 100 µM | > 100 µM | > 100 µM | > 100 µM |  |  |
| COC1OC(COC(=O)NCCCCC(=O)C(F)(F)F)C(O)C(O)C1O (stereo not given) | > 100 µM |  | > 100 µM | > 100 µM | > 100 µM | > 100 µM | > 100 µM | > 100 µM |  | > 100 µM | > 100 µM | > 100 µM | > 100 µM | > 100 µM | > 100 µM | > 100 µM | > 100 µM | > 100 µM | > 100 µM |
| O=C(NCCNCCO)N/N=C/c1ccc([N+](=O)[O-])cc1 | > 100 µM | > 100 µM | > 100 µM | > 100 µM | > 100 µM | > 100 µM | > 100 µM | > 100 µM | > 100 µM | > 100 µM | > 100 µM | > 100 µM | > 100 µM | > 100 µM | > 100 µM | > 100 µM | > 100 µM |  |  |
| CCN1C(=O)C(=Cc2ccc(-c3ccccc3)cc2)C(=O)N(CC)C1=S | > 100 µM |  | > 100 µM | > 100 µM | > 100 µM | > 100 µM | > 100 µM | > 100 µM | > 100 µM | > 100 µM | > 100 µM | > 100 µM | > 100 µM | > 100 µM | > 100 µM | > 100 µM | > 100 µM | > 100 µM | > 100 µM |
| O=C1N[C@@H]([C@H](CCCCCO)OC(=O)c2ccccc2)CO1 | > 100 µM | > 100 µM | > 100 µM | > 100 µM | > 100 µM | > 100 µM |  | > 100 µM | > 100 µM | > 100 µM |  | > 100 µM | > 100 µM | > 100 µM | > 100 µM | > 100 µM | > 100 µM | > 100 µM | > 100 µM |
| COC(=O)c1cc(-c2c[nH]cc2C(=O)OCc2ccccc2)cn1S(=O)(=O)c1ccc(C)cc1 | > 100 µM | > 100 µM | > 100 µM | > 100 µM | > 100 µM | > 100 µM | > 100 µM | > 100 µM | > 100 µM | > 100 µM | > 100 µM | > 100 µM | > 100 µM |  | > 100 µM | > 100 µM |  | > 100 µM |  |
| CN(/N=C/c1cccs1)c1ccc([N+](=O)[O-])cc1[N+](=O)[O-] | > 100 µM |  | > 100 µM | > 100 µM | > 100 µM | > 100 µM | > 100 µM | > 100 µM | > 100 µM | > 100 µM | > 100 µM | > 100 µM | > 100 µM | > 100 µM | > 100 µM | > 100 µM | > 100 µM | > 100 µM | > 100 µM |
| Cc1ccc(C(=O)C#Cc2cn(C3CC(O)C(CO)O3)c(=O)[nH]c2=O)cc1 (stereo not given) | > 100 µM |  | > 100 µM | > 100 µM | > 100 µM |  | > 100 µM | > 100 µM | > 100 µM | > 100 µM | > 100 µM | > 100 µM | > 100 µM | 89.2 µM | 45 µM | > 100 µM | > 100 µM | > 100 µM | > 100 µM |
| Cc1cc(NS(=O)(=O)c2ccc(Nc3c4ccccc4nc4ccc(C(=O)Nc5ccc(S(=O)(=O)N=C(N)N)cc5)cc34)cc2)no1 | > 100 µM |  | > 100 µM | > 100 µM | > 100 µM | > 100 µM | > 100 µM | > 100 µM | > 100 µM | > 100 µM | > 100 µM | > 100 µM | > 100 µM | > 100 µM | > 100 µM | > 100 µM | > 100 µM | > 100 µM | > 100 µM |
| O=C1C(=O)N(C2CCCCC2)C(=S)N1C1CCCCC1 | > 100 µM | > 100 µM | > 100 µM | > 100 µM | > 100 µM | > 100 µM |  | > 100 µM | > 100 µM | > 100 µM | > 100 µM | > 100 µM | > 100 µM | > 100 µM | > 100 µM | > 100 µM | > 100 µM | > 100 µM | > 100 µM |
| CCOC(=O)N1CCN(C(=O)Nc2cccc3ccccc23)CC1 |  | > 10 µM | > 10 µM | > 10 µM | > 10 µM | > 10 µM | > 10 µM | > 10 µM | > 10 µM | > 10 µM | > 10 µM | > 10 µM | > 10 µM | > 10 µM | > 10 µM | > 10 µM | > 10 µM | > 10 µM | > 10 µM |
| c1ccc2c(c1)CCN2CCc1c[nH]c2ccccc12 | > 10 µM |  | > 10 µM | > 10 µM | > 10 µM | > 10 µM | > 10 µM | > 10 µM | > 10 µM | > 10 µM | > 10 µM | > 10 µM | > 10 µM | > 10 µM | > 10 µM | > 10 µM | > 10 µM | > 10 µM | > 10 µM |
| CC(C)(C)OC(=O)CN1CCNCCN(CC(=O)OC(C)(C)C)CC1 | > 100 µM | > 100 µM | > 100 µM | > 100 µM | > 100 µM | > 100 µM | > 100 µM | > 100 µM | > 100 µM | > 100 µM |  | > 100 µM | > 100 µM |  | > 100 µM | > 100 µM |  | > 100 µM | > 100 µM |
